Assay results reported in patent publication US9962362B2, “Use of small molecule inhibitors targeting EYA tyrosine phosphatase” (CHILDREN'S HOSPITAL MEDICAL CENTER, priority 2012, dated 2018).

What was measured:
retinal vasculature = assay: Post-natal retinal angiogenesis in mice; type: in vivo, mouse; conditions: 100 μM injected into eyes at P0.5 and P3, P5 retinas
Method: Next, retinal blood vessel density and angiogenic extension were studied using induced deletion of Eya3 in mice by PDGFB-icreERT2 starting at the day of birth. Isolectin labeled retinal blood vessels at postnatal day 5 in control Eya3fl/fl (FIGS. 8b and 8d) and experimental Eya3fl/fl; PDGFB-icreERT2 (FIGS. […]) mice. FIGS. 8d and 8e are magnified images of the regions indicated in 8b and 8c, respectively.
Next, treatment with an inhibitor of Eya3 was performed to test the effect on post-natal retinal angiogenesis. Briefly, 100 μM of compound 1a was injected into the eyes of post-natal mice, at P0.5 and P3. P5 retinas were then analyzed for effects on the retinal vasculature.

PTP1B = PTP1B (Homo sapiens (Human), UniProt P18031); assay: PTP1B-catalyzed pNPP hydrolysis; type: biochemical; conditions: EYA3 vs PTP1B
Method: The catalytic domain of human Eya2 (“hEYA2(ED)”) was similarly sub-cloned as a polyhistidine fusion construct in the vector pDEST-527. Fusion protein was purified by NiNTA chromatography and followed by size-exclusion chromatography over a Superdex-75 column. The relative purity of protein samples was determined using SDS-PAGE. PTP1B was purified as described previously (Rayapureddi, J. P. et al. Nature 426, 295-298 (2003), incorporated by reference in its entirety).
(§1) Screening Methods. An inhibitory assay was conducted using the previously described p-nitrophenylphosphate assay (Rayapureddi, J. P. et al. Nature 426, 295-298 (2003)). Briefly, ED was incubated in a reaction mixture containing 20 mM MES pH 6, 2 mM MgCl2, 125 μM inhibitor, 3.4 mM para-nitrophenol phosphate (pNPP) and 0.01 μg/μL enzyme.
PTP1B is a classical Cys-based tyrosine phosphatase.

[1] = system: developing zebrafish vasculature; assay: Zebrafish model of angiogenesis; type: in vivo; conditions: for number of intersegmental vessels / defects in the developing vasculature: varying doses; for defects in the developing vasculature: exposure from 5.25 hpf, analysis at 24 hpf
Method: Embryos (FLK1-GFP trangenic) were maintained in fish water until the 50% epiboly stage (5.25 hpf) and were transferred into wells of 24-well plate containing the inhibitors in fish water. The analysis for vascular defects was performed after the 24 hpf stage, and embryos were imaged using a fluorescence microscope.
Transgenic fish expressing EGFP in endothelial cells (Tg(flk1:EGFP)) were used to facilitate visualization of the developing vasculature. In control experiments embryos were treated with 0.1% DMSO (vehicle). At the time of analyses (24 hpf) developing vessels normally migrated from the lateral plate mesoderm to the midline and formed the vascular cord, subsequently forming the dorsal aorta and the posterior cardinal vein and followed by the formation of intersegmental vessels at designated branch points (FIG. 6b).

mouse aortic rings = assay: Aortic ring sprouting angiogenesis assay; type: cell-based; conditions: 5 μM, 10 days, VEGF-stimulated
Method: Endothelial cell migration can also be studied ex vivo using the aortic ring assay in which sprouting angiogenesis is monitored by the formation of vascular sprouts outside the wall of mouse aortic rings incubated in collagen matrix and stimulated by VEGF (Gerhardt, H., et al. EXS, 3-15 (2005), hereby incorporated by reference in its entirety). Briefly, mice were obtained from the Cincinnati Children's veterinary service and handled according to the institutional animal care and use protocol. […] Mice were 4 to 6 weeks old female C57BL16, and aortic ring explants were cultured at 37° C. in a humidified incubator under a 5% CO2 atmosphere.
Each inhibitor was serially diluted (between 0.25 mM and 7.5 mM) to stocks of 1000× the working concentrations in sterile 100% DMSO in order to achieve an equal final concentration of DMSO (0.1% v/v) in all culture conditions. For the experiments, the compounds were diluted in EBM containing 2.5% FBS, penicillin/streptomycin and 20 ng/ml VEGF165 (R&D Systems, Minneapolis, Minn.). Each compound was applied from the first day of culture over a 10-day period with medium change every two days. In all experiments, the vehicle (DMSO, 0.1%) was used as control. The sprouting density was derived from counting the number of branches per ring, and the extent of angiogenic sprouting was estimated by measuring the total surface area covered by the vessels as illustrated in FIG. 7.

MCF10A-EYA2 cells = assay: Transwell migration of MCF10A-EYA2 cells; type: cell-based; conditions: for migration of MCF10A(EYA2) cells: 7.5 μM
Source text: The tyrosine phosphatase activity of Eya3 and Eya2 promotes single cell motility in breast cancer cells (Pandey, R. N. et al. Oncogene (2010) 29:3715-3722, incorporated by reference in its entirety). EYA2 is over-expressed in breast cancers and is associated with increased metastasis and a poorer outcome (Farabaugh, et al. Oncogene (2011) 259). […] Overexpression of EYA2, but not the tyrosine-phosphatase dead mutant, promoted cell motility (FIG. 2a). […] This effect was dose-dependent (FIG. 2d) and compound (1a) was able to reduce cell motility by over 50% at the lowest concentration (1 μM) tested.
In order to determine whether EYA3 knock down would affect cell migration, a modified Boyden chamber assay was used to measure HUVEC migration. Briefly, human umbilical vein endothelial cells (HUVECs) were purchased from Lonza (Walkersville, Md.) and maintained in the endothelial cell growth medium (PromoCell, Heidelberg, Germany), under a 5% CO2 atmosphere. MCF10A cells from ATCC were stably transfected with either pcDNA 3.2N5-DEST (vector control), V5-EYA2 or V5-EYA2(D250N). Transwell migration experiments were performed as previously described (Pandey, R. N. et al. Oncogene 29, 3715-3722, (2010)).

HUVECs [2] = assay: HUVEC proliferation (MTT); type: cell-based, human; conditions: 5 μM, 24 hours
[3] = system: retinal neovascularization; assay: Mouse model of oxygen-induced retinopathy; type: in vivo; conditions: 100 or 50 pmoles injected at P12, analyzed at P16
Source text: The mouse model of oxygen-induced retinopathy mimics the retinopathy characteristic of proliferative retiopathy conditions such as retinopathy of prematurity and diabetic retinopathy. […] The resulting retinal hypoxia after day 12, when pups were brought back to 20% O2, induced excessive hypoxia-driven angiogenesis. A characteristic large avascular area at the center of the retina and excessive regrowth of superficial vessels (pre-retinal neovascular tufts) in the mid-peripheral region was observed. […] In contrast, inhibition of either Vegf or Vegfr2 in OIR experiments suppresses both neovascular tuft formation and revascularization.

EYA3-SIX2 interaction = EYA3-SIX2 interaction (Homo sapiens (Human), UniProt Q99504); assay: His-SIX2 pull-down of EYA3 on Ni-NTA; type: binding; conditions: 50 μM, 15 minutes
Source text: Each point represents the mean and standard deviation of two independent readings. (C) Plots of Vmax and Km as a function of inhibitor concentration. […] The mixture was loaded on a Ni-NTA column. Beads were washed with 3 column volumes of load buffer (last washes, lanes 2 and 6). Proteins retained on the beads are shown in lanes 3 and 7. Lanes 4 and 8 are molecular weight markers.
One function of the catalytic domain of the EYAs is to mediate its interaction with the SIX proteins. This complex then translocates to the nucleus where the SIX-EYA complex can activate transcription.

HUVECs [4] = assay: HUVEC tubulogenesis on matrigel; type: cell-based, human; conditions: 7.5 μM (highest concentration tested)
Method: The EYA inhibitors were also tested in tubulogenesis assays. The tubulogenesis assays were performed in 15-well micro-slide (ibidi LLC, Verona Wis.), using growth factor-reduced matrigel (BD Bioscience, Billerica, Mass.). The matrix was prepared by loading 10 μl of matrigel in each micro-slide well and allowing it to solidify for 30 minutes at 37° C. HUVECs were trypsinized and resuspended at 100,000 cell/ml in EBM+2.5% FBS. 50 μl (5,000 cell) were loaded on top of the solidified matrigel and the preparation was incubated for 20 hours at 37° C. in a humidified incubator in a 5% CO2 atmosphere. Bright field images were taken using an inverted microscope at 2.5× magnification, which allowed imaging of the whole well in two pictures that were later merged in Photoshop. Tubular structures were traced and counted using NeuroJ (NIH, USA). In experiments with inhibitor, the inhibitor was added to the cell suspension before loading. Each sample was loaded in triplicate, and each treatment was repeated for reproducibility.

[5] = target: full-length human recombinant EYA3 (Homo sapiens (Human), UniProt Q99504); assay: pNPP phosphatase assay, full-length EYA3; type: biochemical
Source text: The catalytic domain of mouse Eya3 (“ED”, comprising residues 223-510 of Eya3) was purified as described by Rayapureddi, J. P. et al. (FEBS Lett 580, 3853-3859 (2006), incorporated by reference in its entirety). For full-length Eya3 (“hEYA3”), human Eya3 isoform 2 (representing the major species identified in human cell lines by mass spectrometry, expressed as residues 127-573 of NM_001990, isoform 1) was sub-cloned into pDEST565 to express a poly-histidine-Glutathione-S-transferase (His-GST) tagged fusion protein with a TVMV protease site. The protein was purified by glutathione-S-transferase affinity chromatography followed by TVMV cleavage, Ni-NTA chromatography, and finally size exclusion chromatography.
as §1
The compounds were then tested using full-length human recombinant, purified EYA3 and pNPP as a substrate. Compounds were dissolved in DMSO and diluted as needed. […] Reactions were incubated at 30° C. for 30 minutes and quenched with 100 mM EDTA pH 10. IC50 values were then calculated directly from regression curves using PRISM software. […]

[6] = system: A673 (Ewings sarcoma) cells; assay: Mouse xenograft model of Ewings sarcoma; type: in vivo; conditions: A673 xenograft in nude mice
Method: The affect of EYA inhibitors on a mouse xenograft model of Ewings sarcoma was tested. 5×10^6 A673 (Ewings sarcoma) cells in 0.1 ml sterile matrigel were injected subcutaneously into the dorsal flank region of nude mice. Approximately 5 days after injection, the tumors were about 100-300 mm^3. […] The dose for intra-peritoneal injections was 25 mg/kg/day. The tumor size was monitored every other day. Animals were sacrificed after 2 weeks, or when tumor volume approached 10% of animal weight.

Chain of PTP1B (P18031 whole entry, species assumed, the tested form may be a part): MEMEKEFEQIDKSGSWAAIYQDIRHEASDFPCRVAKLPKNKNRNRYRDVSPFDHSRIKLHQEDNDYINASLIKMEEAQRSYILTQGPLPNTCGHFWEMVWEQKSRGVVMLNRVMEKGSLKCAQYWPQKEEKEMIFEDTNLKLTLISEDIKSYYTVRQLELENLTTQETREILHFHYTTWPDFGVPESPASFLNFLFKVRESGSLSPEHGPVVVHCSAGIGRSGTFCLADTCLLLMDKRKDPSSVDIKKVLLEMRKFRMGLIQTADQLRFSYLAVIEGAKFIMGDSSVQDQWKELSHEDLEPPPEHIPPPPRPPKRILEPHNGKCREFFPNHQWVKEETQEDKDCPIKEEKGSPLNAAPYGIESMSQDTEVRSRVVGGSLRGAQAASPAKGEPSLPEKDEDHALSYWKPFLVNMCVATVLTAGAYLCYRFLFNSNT
Chain of full-length human recombinant EYA3 (Q99504 127-573): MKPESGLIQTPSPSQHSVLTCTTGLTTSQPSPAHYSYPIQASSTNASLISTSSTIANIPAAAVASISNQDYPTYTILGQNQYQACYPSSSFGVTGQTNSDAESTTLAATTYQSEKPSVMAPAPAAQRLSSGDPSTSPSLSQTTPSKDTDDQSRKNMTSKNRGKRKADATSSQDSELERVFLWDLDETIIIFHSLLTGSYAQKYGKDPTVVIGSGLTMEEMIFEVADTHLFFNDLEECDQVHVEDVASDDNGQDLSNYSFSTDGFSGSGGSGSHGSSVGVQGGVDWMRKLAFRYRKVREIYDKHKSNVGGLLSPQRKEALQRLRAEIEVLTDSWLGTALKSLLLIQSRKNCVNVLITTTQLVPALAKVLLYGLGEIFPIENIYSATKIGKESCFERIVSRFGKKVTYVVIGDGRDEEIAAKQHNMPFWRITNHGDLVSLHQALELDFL
Chain of EYA3-SIX2 interaction (Q99504 whole entry, looked up, stated change not applied): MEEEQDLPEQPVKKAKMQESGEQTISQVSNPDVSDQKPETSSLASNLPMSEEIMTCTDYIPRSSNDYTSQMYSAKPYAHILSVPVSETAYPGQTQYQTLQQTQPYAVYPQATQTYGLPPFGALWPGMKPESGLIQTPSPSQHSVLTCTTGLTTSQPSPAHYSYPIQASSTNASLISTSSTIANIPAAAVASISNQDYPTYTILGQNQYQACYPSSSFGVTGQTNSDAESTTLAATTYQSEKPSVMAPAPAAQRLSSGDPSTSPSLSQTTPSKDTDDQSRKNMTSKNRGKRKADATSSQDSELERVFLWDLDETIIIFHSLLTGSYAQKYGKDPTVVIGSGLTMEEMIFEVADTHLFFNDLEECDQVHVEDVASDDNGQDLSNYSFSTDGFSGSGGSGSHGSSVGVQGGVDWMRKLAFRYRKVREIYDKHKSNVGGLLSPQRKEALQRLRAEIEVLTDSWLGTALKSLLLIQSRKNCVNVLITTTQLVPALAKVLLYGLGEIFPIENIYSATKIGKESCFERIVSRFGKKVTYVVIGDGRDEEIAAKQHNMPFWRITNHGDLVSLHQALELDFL
Chain of EYA3-SIX2 interaction (Q9NPC8 whole entry partner, looked up): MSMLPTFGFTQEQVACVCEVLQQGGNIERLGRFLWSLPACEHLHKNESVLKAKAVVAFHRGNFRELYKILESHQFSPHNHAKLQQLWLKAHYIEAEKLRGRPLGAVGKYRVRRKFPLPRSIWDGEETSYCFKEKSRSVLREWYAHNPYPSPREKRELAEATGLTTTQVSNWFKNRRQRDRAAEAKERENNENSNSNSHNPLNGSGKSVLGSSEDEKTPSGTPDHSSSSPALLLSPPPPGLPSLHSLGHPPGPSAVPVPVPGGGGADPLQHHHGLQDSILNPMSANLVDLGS

| Structure (SMILES) | retinal vascular branch points (retinal vasculature) | greater activity towards EYA3 than PTP1B (PTP1B) | number of intersegmental vessels [1] | defects in the developing vasculature [1] | aortic ring sprouting (mouse aortic rings) | reduction of cell motility (MCF10A-EYA2 cells; 1 μM (lowest concentration tested)) | migration of MCF10A(EYA2) cells (MCF10A-EYA2 cells) | HUVEC cell proliferation (HUVECs [2]) | formation of neovascular tufts [3] | intersegmental vessels ([1]; 0.25 μM (lowest dose tested)) | EYA3-SIX2 interaction in presence of inhibitor (EYA3-SIX2 interaction) | inhibition of tubulogenesis (HUVECs [4]) | Vmax and Km as a function of inhibitor concentration [5] | mode of inhibition of EYA3 (substrate titration) ([5]; increasing substrate concentration) | tumor growth [6] |
| --- | --- | --- | --- | --- | --- | --- | --- | --- | --- | --- | --- | --- | --- | --- | --- |
| CCc1oc2ccccc2c1C(=O)c1ccc(O)cc1 [Compound 1a] | quantifiable decrease in branch points | over 100 fold | reduced the number of intersegmental vessels, but were less potent | Dose-dependent defects in the developing vasculature | shorter sprouts and significantly lower microvascular density | over 50% | significantly inhibited cell migration | no effect on cell proliferation | Significant reduction in the formation of neovascular tufts | – | – | – | – | – | – |
| CCc1oc2ccccc2c1C(=O)c1cc(Br)c(O)c(Br)c1 [Compound 1, Benzbromarone, reference compound] | – | 4.7-6.5 fold | – | Dose-dependent defects in the developing vasculature | shorter sprouts and significantly lower microvascular density | – | significantly inhibited cell migration | no effect on cell proliferation | Significant reduction in the formation of neovascular tufts | significant reduction of intersegmental vessels | unaffected | effective | both values decrease with increased inhibitor concentration | not a competitive inhibitor | able to reduce tumor growth |
| CCCCc1oc2ccccc2c1C(=O)c1ccc(O)cc1 [Compound 1b] | – | 4.7-6.5 fold | reduced the number of intersegmental vessels, but were less potent | Dose-dependent defects in the developing vasculature | shorter sprouts and significantly lower microvascular density | – | significantly inhibited cell migration | no effect on cell proliferation | Significant reduction in the formation of neovascular tufts | – | – | effective | – | – | – |
